Data from the supplement of paper PMC3974653.
Where a name gives a salt, the structure may show the parent alone.

tested on: MTT (mouse pheochromocytoma); assay: IC50 of cell viability (ATP content); conditions: (24 or 48 h)
In short: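 MTT mouse pheochromocytoma cells (5 µl of 200,000 cells/ml per well, white 1536-well plates, DMEM with 5% FBS and 1% horse serum) were cultured overnight at 37°C, 5% CO2. They then received 23 nl library compound in DMSO by pintool at 8 concentrations (final 0.5 nM to 46 µM) for 24 or 48 hrs. CellTiter-Glo ATP luminescence was read after 15 minutes. Signals were normalised to positive-control (100% inhibition) and DMSO (0%) wells, and IC50 came from a four-parameter logistic fit.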

SMILES | IC50 of cell viability [µM]
C[N+](C)(C)CCOP(=O)([O-])OP(=O)([O-])OCC1OC(n2ccc(N)nc2=O)[C@H](O)[C@@H]1O (some centres undefined) [Cytidine 5'-diphosphocholine sodium salt hydrate] | > 46
CC(C)Oc1cccc(NC(=O)c2ccccc2C(F)(F)F)c1 [Flutolanil] | > 46
CN1CC(=O)N2C(Cc3c([nH]c4ccccc34)[C@H]2c2ccc3c(c2)OCO3)C1=O (some centres undefined) [TADALAFIL] | > 46
C[N+]1(C)CCCCC1COC(=O)C(O)(c1ccccc1)c1ccccc1 (centres undefined) [BEVONIUM METHYLSULFATE] | > 46
Oc1ncnc2[nH]ncc12 [Allopurinol] | > 46
CC1=NN=C2C\N=C(\C3=C(Cl)C=CC=C3)C4=C(C=CC(=C4)Cl)[N]12 [TRIAZOLAM] | > 46
Cc1cc(O)cc2c1O[C@](C)(CCC[C@H](C)CCC[C@H](C)CCCC(C)C)CC2 [Delta-Vitamin E] | > 46
CC(=O)[C@@]1(O)CC[C@H]2[C@@H]3CC\C4=C\C(=O)CC[C@]4(C)[C@H]3CC[C@]12C [Hidroxiprogesterona] | > 46
C[C@]12CC[C@@H]3c4ccc(OC(=O)N(CCCl)CCCl)cc4CC[C@@H]3[C@H]1CC[C@@H]2OP(=O)(O)O [ESTRAMUSTINE PHOSPHATE] | > 46
N=C(N)NN.O=[S+]([O-])(O)O [2-AMINOGUANIDINE HEMISULFATE] | > 46
F[Si-2](F)(F)(F)(F)F [SODIUM HEXAFLUOROSILICATE] | > 46
CC(C)(C)NC(=O)[C@H]1CC[C@H]2[C@@H]3CC=C4C=C(C(=O)O)CC[C@@]4(C)[C@H]3CC[C@]12C [Epristeride] | > 46
CCC(=O)OCC(=O)C1(OC(=O)CC)C(C)CC2C3CCC4=CC(=O)C=CC4(C)C3(F)C(O)CC21C (centres undefined) [Betamethasone dipropionate] | > 46
NC(=O)c1cnccn1 [Pyrazinamide] | > 46
C[N+]1(CCF)[C@@H]2CC[C@@H]1CC(OC(=O)C(O)(c1ccccc1)c1ccccc1)C2 (some centres undefined) [Flutropium] | > 46
Cl.O=C1NCC2(CCN(CCc3ccccc3)CC2)O1 [FENSPIRIDE HYDROCHLORIDE] | > 46
CCCCC(CC)COC(=O)CC(C(=O)OCC(CC)CCCC)S(=O)(=O)[O-] (centres undefined) [Colace] | > 46
OCC(O)C(O)C(O)C(O)CO (centres undefined) [SORBITOL] | > 46
CCCCCCCCCC(=O)NO [DECANOHYDROXAMIC ACID] | > 46
CC(=O)OC1CN2CCC1CC2 (centres undefined) [ACECLIDINE] | > 46
C[C@]\12CCC(=O)\C=C1CC[C@H]3[C@@H]4CC[C@](O)(C(=O)CO)[C@@]4(C)C[C@H](O)[C@H]23 [HYDROCORTISONE] | > 46
Cn1nnc2c(C(N)=O)ncn2c1=O [TEMOZOLOMIDE] | > 46

SMILES | IC50 of cell viability [µM]
C[C@]12CCC3C(CCC4=CC(=O)CC[C@@H]43)C1CCC2O (some centres undefined) [19-Norandrostenolone] | > 46
O=c1[nH]c(=O)n([C@H]2C[C@H](O)[C@@H](CO)O2)cc1/C=C/Br [(E)-5-(2-Bromovinyl)-2'-deoxyuridine] | > 46
NC[C@@H]1O[C@H](OC2[C@@H](CO)O[C@@H](OC3[C@H](O)[C@H](N)C[C@H](N)[C@H]3OC3O[C@H](CO)[C@@H](O)[C@H](O)[C@@H]3N)[C@H]2O)C(N)[C@H](O)[C@@H]1O (some centres undefined) [PAROMOMYCIN SULFATE] | > 46
O=[N+]([O-])c1cc(I)c(O)c(I)c1 [DISOPHENOL SODIUM] | > 46
C1C\N=C(\CN(CC2=CC=CC=C2)C3=CC=CC=C3)N1 [Antazoline hydrochloride] | > 46
N[S+](=O)([O-])c1cc2c(cc1Cl)N[C@@H](C(Cl)Cl)N[S+]2(=O)[O-] [Trichlormethiazide] | > 46
CC[C@H]1OC(=O)[C@H](C)[C@@H](O[C@H]2C[C@@](C)(OC)[C@@H](O)[C@H](C)O2)[C@H](C)[C@@H](O[C@@H]2O[C@H](C)C[C@H](N(C)C)[C@H]2O)[C@](C)(O)C[C@@H](C)CN(C)[C@H](C)[C@@H](O)[C@]1(C)O [Azithromycin] | > 46
Oc1nc(O)c2[nH]c(O)nc2n1 [Uric acid] | > 46
N=C(N)NCC1COc2ccccc2O1 (centres undefined) [Guanoxano] | > 46
O=P([O-])([O-])OC[C@@H](O)CO [POTASSIUM GLYCEROPHOSPHATE] | > 46
CCOc1ccc(C[C@H]2NC(=O)CCSSC[C@@H](C(=O)N3CCC[C@H]3C(=O)N[C@@H](CCCN)C(=O)NCC(N)=O)NC(=O)[C@H](CC(N)=O)NC(=O)[C@H]([C@@H](C)O)NC(=O)[C@H]([C@@H](C)CC)NC2=O)cc1 [Atosiban] | > 46
O=[N+]([O-])c1c2ccccc2cc2ccccc12 [9-Nitroanthracene] | > 46
CCCN1C[C@H](CSC)C[C@@H]2c3cccc4[nH]cc(c34)C[C@H]21 [PERGOLIDE METHANESULFONATE] | > 46
O=C(NCNC(=O)NC1C(=O)NC(=O)N1CO)NC1C(=O)NC(=O)N1CO (centres undefined) [Imidazolidinyl urea] | > 46
Cc1ccccc1C(OCCN(C)C)c1ccccc1 (centres undefined) [Orphenadrine citrate salt] | > 46
CCN1CCN(c2cc(-c3ccc(F)cc3)c3c(n2)CCCCCC3)CC1 [BLONANSERIN] | > 46
CCC1CC2CC3c4[nH]c5ccc(OC)cc5c4CCN(C2)C13 (centres undefined) [Ibogaine] | > 46
OC(CN1CCC(Cc2ccc(F)cc2)CC1)c1ccc(Cl)cc1 (centres undefined) [Eliprodil] | > 46
CC(C)\C1=C(/CN(C)[C@@H](C)CC2=CC=CC=C2)N(C)N(C3=CC=CC=C3)C1=O [Famprofazone] | > 46
COP(=S)(OC)SCN1C(=O)c2ccccc2C1=O [Phosmet] | > 46
CNC[C@H](O)c1ccc(O)cc1 (racemic) [(+,-)-Synephrine] | > 46

The next lines start with the values.

IC50 of cell viability [µM] | SMILES
> 46 | CCN1\C=C(\C(O)=O)C(=O)C2=CC(=C(N3CCN[C@@H](C)C3)C(=C12)F)F [Lomefloxacin hydrochloride]
> 46 | NC(CO)(CO)CO.O=C(c1ccccc1)c1ccc2n1CC[C@H]2C(=O)O [Ketorolac tromethamine]
> 46 | C[C@H](NCCc1ccc(O)cc1)[C@@H](O)c1ccc(O)cc1 [Ritodrine hydrochloride]
> 46 | CCOC(=O)C(\C#N)=C(/C1=CC=CC=C1)C2=CC=CC=C2 [Etocrylene]
> 46 | NCC1=C(CC(=O)N[C@H]2[C@@H]3SC\C(=C(/N3C2=O)C(O)=O)CSC4=NN=N[N]4CC(O)=O)C=CC=C1 [Ceforanide]
> 46 | CCCCCN(CCCCC)C(=O)C(CCC(=O)[O-])NC(=O)c1ccc(Cl)c(Cl)c1.[Na+] (centres undefined) [LORGLUMIDE SODIUM]
> 46 | C[C@@H](CCc1ccccc1)NC[C@H](O)c1ccc(O)c(C(N)=O)c1 [Labetalol hydrochloride]
> 46 | Nc1ccc(O)c(C(=O)O)c1 [Mesalamine]
> 46 | Cc1cccc(Nc2ccncc2[S+](=O)([O-])NC(=O)NC(C)C)c1 [Torsemide]
> 46 | CC(C)CN(C[C@@H](O)[C@H](Cc1ccccc1)NC(=O)O[C@@H]1CO[C@H]2OCC[C@H]21)[S+](=O)([O-])c1ccc(N)cc1 [DARUNAVIR ETHANOLATE]
> 46 | CC1(O\C(=C/C1=O)C(O)=O)C2=CC=CC=C2 (centres undefined) [Acifran]
> 46 | O=C(NC(CO)C(O)c1ccc([N+](=O)[O-])cc1)C(Cl)Cl (centres undefined) [CHLORAMPHENICOL]
> 46 | CC[C@H](c1ccc(O)cc1)[C@@H](CC)c1ccc(O)cc1 [Hexestrol]
> 46 | CC(Cc1ccccc1)(NC(=O)CN)c1ccccc1 (centres undefined) [Remacemide hydrochloride]
> 46 | O=C1/C(=C\c2cccs2)CCC/C1=C/c1cccs1 [Tenilidona]
> 46 | COc1cccc2c1[C@@H]1CN(CCCCn3c(=O)[nH]c4c(sc5ncc(-c6ccccc6)nc54)c3=O)C[C@@H]1CO2 [Fiduxosin hydrochloride]
> 46 | CCN(CCCCOC(=O)c1ccc(OC)c(OC)c1)[C@@H](C)Cc1ccc(OC)cc1 [Mebeverine hydrochloride]
> 46 | Cc1c(OCC(F)(F)F)ccnc1C[S+]([O-])c1nc2ccccc2[nH]1 (centres undefined) [Lansoprazole]
> 46 | CCN(CC)CC1CCCCN1CC(=O)N1c2ccccc2C(=O)Nc2cccnc21 (centres undefined) [AF-DX 116]
> 46 | Cc1cccc(C)c1NC(=O)CN(CC(=O)O)CC(=O)O [Lidofenin]
> 46 | O=C(O)COc1ccc(C(=O)c2cccs2)c(Cl)c1Cl [ACIDUM TIENILICUM]
> 46 | CC(CNC(=O)c1cccnc1)NC(=O)c1cccnc1 (centres undefined) [Nicaraven]
> 46 | N[C@H](Cc1c[nH]c2ccccc12)C(=O)O [D-TRYPTOPHAN]
> 46 | CCSc1ccc2c(c1)N(CCCN1CCN(C)CC1)c1ccccc1S2.O=C(O)C[C@@H](O)C(=O)O.O=C(O)C[C@@H](O)C(=O)O [Thiethylperazine malate]
> 46 | O=C1c2ccccc2C(=O)C1c1ccc(Cl)cc1 [Clorindione]
> 46 | O=C1c2ccccc2C(=O)C1c1ccc(Br)cc1 [Bromindione]
